Entries after “also recorded” stand apart in the source; their conditions may differ.
Columns and labels:
GMP140 = test: Inhibition of adhesion of neutrophils to GMP140 (FIG. 4B); assay type: cell-based; conditions: protein at 50 ug/ml, compared to buffer control
Procedure: (§1) In the study, the proteins PT, B-oligomer, S2, S3, S2/S3 and S3/S2 were taken up in an isotonic buffered tissue culture medium to a concentration of 50 ug/ml and the ability of each of them to inhibit adhesion of neutrophils to ELAM or GMP140 was determined as described by Wright et al J. Exp. Med. 158:2016 (1983). The buffer was employed as the control and each protein studied was compared to the control for the ability to decrease adhesion capacity.

alveolar macrophages = test: Reconstitution of adherence of B. pertussis mutant BP101/TOX6 to macrophages by exogenous PT and subunits; assay type: cell-based; conditions: PT component 50 ug/ml coated on BP101/TOX6; 10^7 bacteria, 10^5 rabbit alveolar macrophages, 3 hours; mean ± standard deviation
Procedure: (§2) The ability of PT or the individual subunits to act as adhesins for PT-deficient bacteria to eukaryotic cells was assessed as described by Tuomanen et al (1985). Infect. Dis. 153, 118-125 and Relman et al (199) Cell 61, 1375-1382. […] For the test reported in Table 1 PT or its individual subunits (50 ug/ml) were incubated for 30 minutes with strain BPTOX6 for ciliated cell assays or BP101/TOX6 for macrophage assays in order to coat the bacteria with adhesin. 10^7 bacteria were then incubated for 3 hours with 10^5 ciliated cells or alveolar macrophages harvested from healthy rabbits (2,4). Adherence was detected by staining of the bacteria with a 1:40 dilution of fluorescein conjugated anti-Bordetella antibody (Difco, Detroit, Mich.). Values are expressed as the mean ±standard deviation of the number of bacteria per eukaryotic cell, 25 cells/test, and each test repeated in triplicate. The procedure is described in more detail in Saukkonen et al Proc. Natl. Acad. Sci. 89,118-122 (1991).

[1] = tested on: leukocytes in cerebrospinal fluid; test: Rabbit model of pneumococcal meningitis: leukocytes in cerebrospinal fluid (FIG. 6b, 7B); assay type: in vivo; conditions: rabbits with established pneumococcal meningitis; intravenous PT or B-oligomer
Source text: This is shown experimentally in FIG. 6b. In the experiments rabbits with established pneumonococcal meningitis received intravenous PT or B-oligomer.
FIG. 7B illustrates the use of anti S-segment antibodies to decrease the inflammation in a rabbit model of meningitis. Rabbits with established pneumonococcal meningitis received antibodies to intact PT or PT subunits: S2:3A12, S3:6F8 and S4:9C6.

ciliated cells = test: Reconstitution of adherence of B. pertussis mutant BPTOX6 to ciliated cells by exogenous PT and subunits; assay type: cell-based; conditions: PT component 50 ug/ml coated on BPTOX6; 10^7 bacteria, 10^5 rabbit ciliated cells, 3 hours; mean ± standard deviation
Procedure: as §2

[2] = Carbohydrate recognition: binding to glycolipids separated by thin layer chromatography (FIG. 3)
Source text: The variability in the S2 and S3 segments shown in FIG. 1 SEQ ID NOS:42-47 is, quite clearly responsible for the variation in carbohydrate binding properties of PT, S2 and S3 which have been observed.
The peptides S2/S3 and S3/S2 are novel therapeutic agents and are specifically included within the scope of this invention, as are the genes which express them.
In FIG. 3, the dark bars represent the positions of glycolipids after separation by thin layer chromatography in accordance with the method of Tuomanen et al, J. Exp Med 168:267, 1988.

ELAM = test: Assay 1: inhibition of adherence of neutrophils to ELAM-coated surfaces (FIG. 4); assay type: cell-based; conditions: protein at 50 ug/ml, compared to buffer control
Procedure: as §1
Assay 1 is inhibition of adherence of enutrophils to ELAM-coated surfaces as described in connection with FIG. 4. Values ±20% inhibition are significant.

Substance: pertussis toxin [PT]
- inhibition of neutrophil adhesion to GMP140 (GMP140): 30%
- Number of bacteria/target cell, Macrophage (alveolar macrophages): 21 ± 2.3 bacteria/target cell
- accumulation of leukocytes in cerebrospinal fluid [1]: decreased the accumulation of leukocytes in cerebrospinal fluid
- Number of bacteria/target cell, Ciliated Cell (ciliated cells): 6.7 ± 0.8 bacteria/target cell
- carbohydrates (glycolipids) recognized [2]: binds to lactosylceramide, glucosylceramide, sulfatides and gangliosides; also recorded: recognize lactosylaceramide, and gangliosides
- inhibition of neutrophil/leukocyte adherence to ELAM (ELAM): 60%
